Laboratory results: patent US20250295653A1, “Use Of Glycine Transporter- 1 Antagonists As Vascular Dementia And/Or Stroke Prophylactic/Treatment Agents” (Recherches Neuro-Hippocampe Inc., priority 2022, published 2025)
Entries after “also recorded” stand apart in the source; their conditions may differ.

Key:
NMDAR [1] = target: T1, NMDAR (Mus musculus, UniProt P35438); test: Whole-cell voltage-clamp recordings of evoked NMDAR-EPSCs in CA1 pyramidal cells of acute hippocampal slices; assay type: cell-based; settings: for effect of a low dose after priming of NMDARs with high doses of glycine or D-serine: subsequent application of a low dose
[2] = 175 mg, clinical trials; cited from earlier work
NMDAR [3] = test: Whole-cell voltage-clamp recordings of evoked NMDAR-EPSCs in CA1 pyramidal cells of acute hippocampal slices; assay type: cell-based, mouse; settings: 1 mM glycine, acute slices, cells infected with AAV-GluN1-A714L
[4] = tested on: NMDAR (GluN1-WT or GluN1-A714L with GluN2A) in HEK293 cells; settings: 1 mM glycine
NMDAR [5] = target: T1, NMDAR; test: NMDAR-EPSC trains in acute slices during the oxygen-glucose deprivation (OGD) paradigm; assay type: cell-based; settings: NMDAR-EPSC trains (20 Hz) recorded with GO
Excerpt: Whole-cell electrophysiology on hippocampal slices and HEK293 cells. Whole-cell voltage-clamp recordings were obtained from visually identified CA1 pyramidal cells from acute hippocampal brain slices (300 μm thick) in oxygenated artificial cerebrospinal fluid (ACSF) as previously described (Martina et al., 2004, 2005). The cells were voltage-clamped at −65 mV using cesium methane sulfonate based internal solution and postsynaptic currents were evoked by electrical stimulation of the Schaffer collaterals with a bipolar stimulating electrode positioned in the Stratum radiatum. The intensity of the stimulation was adjusted to obtain evoked excitatory postsynaptic currents (EPSCs). […] To isolate the NMDAR-EPSC, a low concentration of MgCl2 (0.13 mM) ACSF was used wherein the CaCl2 concentration was increased to 3.5 mM to maintain cation balance.
Oxygen-glucose deprivation paradigm. To mimic ischemia, the acute slices were challenged by an oxygen-glucose deprivation paradigm (OGD) modified from Rossi et al. (Rossi et al., 2000). In this paradigm, external glucose was replaced with 7 mM sucrose, and the external solution was saturated with 95% N2/5% CO2 instead of 95% O2/5% CO2. Iodoacetate and cyanide were also added to the OGD external solution to block glycolysis and oxidative phosphorylation.
Purification of glycine oxidase. […]

In the case of `O=C(O)CN(CC(=O)O)c1ccccc1OCCOc1ccccc1N(CC(=O)O)CC(=O)O` [BAPTA], the “effect on the decrease in NMDAR-EPSC amplitude induced by 1 mM exogenous glycine” value (NMDAR [1]; BAPTA 10 mM in the recording electrode) is reported as “significant attenuation”.

For `C[C@H](Oc1ccc(S(C)(=O)=O)cc1C(=O)N1CCN(c2ncc(C(F)(F)F)cc2F)CC1)C(F)(F)F` [Bitopertin], the “tolerability at high dose” value [2] is given as “relatively well tolerated”.

In the case of `N[C@H](CO)C(=O)O` [D-serine], the “effect on evoked NMDAR-EPSC amplitude” value (NMDAR [1]; 10 μM D-serine, WT and SR−/− mice) is reported as “potentiated”, the “effects of increasing concentrations on NMDAR-EPSC amplitudes” value (NMDAR [1]; D-serine, WT mice) is reported as “dose-dependent” and the “dose required to induce a decrease in NMDAR-EPSC amplitude” value (NMDAR [1]; SR−/− mice) is reported as 2 mM. For the same molecule, the “dose required to induce a decrease in NMDAR-EPSC amplitude” value (NMDAR [1]; WT mice) was 1 mM, the “dose-response curve of NMDAR-EPSC amplitudes relative to that of glycine” value (NMDAR [1]; WT mice) was “left-shifted” and the “effect of a low dose after priming of NMDARs with high doses of glycine or D-serine” value (NMDAR [1]) was “induced GINI”.

For `O=C(N/N=C/c1ccc(O)c(O)c1)c1cc2ccccc2cc1O` [dynasore], the “effect on the decrease in NMDAR-EPSC amplitude by 1 mM glycine” value (NMDAR [1]; 100 μM dynasore) was “abolished”, the “effect on the decrease in NMDAR-EPSC amplitude evoked by 1 mM D-serine” value (NMDAR [1]; dynasore) was “abolished” and the “effect on the decrease of NMDAR-EPSC amplitude induced by 250 μM glycine” value (NMDAR [1]; dynasore, GlyT1+/− mice) was “abolished”.

In the case of `NCC(=O)O` [glycine], the “effect on NMDAR-EPSC amplitudes” value (NMDAR [3]) is reported as “did not decrease”, the “effect on NMDAR-EPSC amplitude” value (NMDAR [1]; 250 μM glycine, GlyT1+/− mice) is reported as “significantly inhibited” and the “effect on NMDAR-EPSC amplitude” value (NMDAR [1]; 250 μM glycine, WT mice) is reported as “potentiated”. The “effect on NMDAR-EPSC amplitude” value (NMDAR [1]; 1 mM glycine with low Ca2+ (1 mM)) was “increase in NMDAR-EPSC amplitude”, the “difference in NMDAR-EPSC amplitude between WT and GlyT1+/− mice” value (NMDAR [1]; bath application of 10 μM or 1 mM glycine) was “no significant effect” and the “effect on NMDAR-EPSC amplitude” value (NMDAR [1]; bath application of low glycine concentrations (below / ≤250 μM), WT slices) was “increased; also recorded: potentiated in a dose-dependent fashion”. For the same molecule, the “effect on NMDAR-EPSC amplitude” value (NMDAR [1]; high glycine concentration (1 mM), normal Ca2+ (3.5 mM), WT slices) was “significantly reduced; also recorded: significant decrease”, the “effect of a low dose after priming of NMDARs with high doses of glycine or D-serine” value (NMDAR [1]) was “induced GINI” and the “effect on NMDAR amplitude” value ([4]; cells expressing GluN1-A714L) was “significantly increased”. For the same molecule, the “effect on amplitude of the NMDAR-EPSC” value ([4]; cells expressing GluN1-WT) was “significant decrease”.

B1: GO: an enzyme that catalyzes the breakdown of glycine; His-tagged, from Bacillus subtilis, expressed in E. coli (protein, UniProt O31616 1-369, looked up)
Glycine oxidase: MKRHYEAVVIGGGIIGSAIAYYLAKENKNTALFESGTMGGRTTSAAAGMLGAHAECEERDAFFDFAMHSQRLYKGLGEELYALSGVDIRQHNGGMFKLAFSEEDVLQLRQMDDLDSVSWYSKEEVLEKEPYASGDIFGASFIQDDVHVEPYFVCKAYVKAAKMLGAEIFEHTPVLHVERDGEALFIKTPSGDVWANHVVVASGVWSGMFFKQLGLNNAFLPVKGECLSVWNDDIPLTKTLYHDHCYIVPRKSGRLVVGATMKPGDWSETPDLGGLESVMKKAKTMLPAIQNMKVDRFWAGLRPGTKDGKPYIGRHPEDSRILFAAGHFRNGILLAPATGALISDLIMNKEVNQDWLHAFRIDRKEAVQI
modifications: His tag
notes: an enzyme that catalyzes the breakdown of glycine; His-tagged, from Bacillus subtilis, expressed in E. coli
In the case of B1, the “effect on the decrease of the NMDAR-EPSC amplitude following OGD” value (NMDAR [5]) is reported as “abolished”.
